One may read the GI50 as the concentration that inhibits growth by half.

Among the test systems are OVCAR-5; OVCAR-4; MDA-MB-435; BT-549; SNB-75; HCT-15; SK-OV-3; SNB-19; DU-145; TK-10; SW-620; SF-295; 786-0; Hs-578T; T47D; RXF 393; Malme-3M; SR; UACC-257; DLD-1.
Experiment in all cases: DTP human tumour cell line panel, 48 h

Structures are written as SMILES.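 Compound exposure: 48 hours, 5 concentrations, 96-well plates. At the GI50, growth is halved.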 Calls of active or inactive are those of the source. Cut-off read from the data, not from the text of the source: active = GI50 up to about 1.1 µM and inactive = higher.

`O=C(O)/C(=C\c1ccncc1)c1cccc2ccccc12`: the GI50 was > 100 µM (inactive) in the experiment with OVCAR-5; > 100 µM (inactive) in the experiment on OVCAR-4; > 100 µM (inactive) with MDA-MB-435; > 100 µM (inactive) in the experiment on BT-549; > 100 µM (inactive) in the experiment on SNB-75; > 100 µM with HCT-15. The GI50 in the experiment on SK-OV-3, in the experiment on SNB-19, in the experiment on DU-145, in the experiment with TK-10, in the experiment with SW-620 and in the experiment on SF-295 was > 100 µM (inactive) each time. Further, the GI50 with 786-0, in the experiment on Hs-578T, in the experiment with T47D, in the experiment on RXF 393, with Malme-3M and with SR was > 100 µM (inactive) in each case. For the same compound, in the experiment with UACC-257, the 50% growth inhibitory concentration (GI50) was 0.145 µM (active).
In the case of `Cc1ccc(S(=O)(=O)n2cncc2CO)cc1`, the GI50 with OVCAR-5 was > 100 µM (inactive); in the experiment on OVCAR-4, > 100 µM (inactive); in the experiment on MDA-MB-435, > 100 µM (inactive); in the experiment on BT-549, > 100 µM (inactive); in the experiment on SNB-75, > 100 µM (inactive); in the experiment with HCT-15, > 100 µM. Moreover, the GI50 in the experiment with SK-OV-3, with SNB-19, in the experiment on DU-145, in the experiment on TK-10, in the experiment with SW-620 and in the experiment with SF-295 was > 100 µM (inactive) each time. The GI50 in the experiment with 786-0, in the experiment with Hs-578T, in the experiment on T47D, with RXF 393, with Malme-3M and in the experiment with SR was > 100 µM (inactive) in each case. In addition, in the experiment on UACC-257, the GI50 is > 100 µM (inactive).
Take `COc1cc2c(cc1OCc1ccccc1)NC(=S)[C@@H]1CCCN1C2=S`: the GI50 was > 100 µM (inactive) with OVCAR-5; 4.09 µM (inactive) in the experiment with OVCAR-4; > 100 µM (inactive) in the experiment on MDA-MB-435; > 100 µM (inactive) with BT-549; 15 µM (inactive) in the experiment on SNB-75; > 100 µM with HCT-15. Further, the GI50 in the experiment with SK-OV-3 is > 100 µM (inactive); in the experiment on SNB-19, > 100 µM (inactive); in the experiment on DU-145, > 100 µM (inactive); in the experiment with TK-10, > 100 µM (inactive); in the experiment on SW-620, > 100 µM (inactive); with SF-295 it was 37.5 µM (inactive). In addition, the GI50 was 88.1 µM (inactive) with 786-0; 4.84 µM (inactive) in the experiment with Hs-578T; 82.4 µM (inactive) in the experiment on T47D; > 100 µM (inactive) in the experiment with RXF 393; 71.6 µM (inactive) in the experiment on Malme-3M; 48.5 µM (inactive) with SR. The GI50 in the experiment with UACC-257 was > 100 µM (inactive).
For `CCCCN1CSC(=S)N(Cc2ccccc2)C1`, the GI50 in the experiment on OVCAR-5 was > 100 µM (inactive); in the experiment on OVCAR-4, 56.8 µM (inactive); in the experiment with MDA-MB-435, 38.2 µM (inactive); with BT-549, > 84.9 µM (inactive); with SNB-75 it was 33.7 µM (inactive); in the experiment on HCT-15, 58.2 µM. In addition, the GI50 in the experiment with SK-OV-3 was > 100 µM (inactive); in the experiment on SNB-19, 66.4 µM (inactive); in the experiment with DU-145 it was 69.3 µM (inactive); in the experiment on TK-10 it was 28.4 µM (inactive); with SW-620, 37.8 µM (inactive); in the experiment with SF-295 it was 48.1 µM (inactive). Also, the GI50 in the experiment on 786-0 is 34.4 µM (inactive); in the experiment with Hs-578T it was > 70.3 µM (inactive); in the experiment on T47D, 34.8 µM (inactive); in the experiment with RXF 393 it was 48 µM (inactive); in the experiment on Malme-3M, 36.8 µM (inactive); in the experiment on SR it was 31.7 µM (inactive). Further, the GI50 in the experiment with UACC-257 is 20.9 µM (inactive).
For the compound `COc1cccc(C2C(C(=O)O)=C(CO)Oc3cc4c(cc32)OCO4)c1` (stereo not given), the GI50 was > 100 µM (inactive) in the experiment with SNB-75; > 100 µM with HCT-15; > 100 µM (inactive) in the experiment on SK-OV-3; > 100 µM (inactive) in the experiment on SNB-19; > 100 µM (inactive) with TK-10; > 100 µM (inactive) with SW-620. For the same compound, the GI50 with SF-295, in the experiment with DLD-1 and with Malme-3M was > 100 µM (inactive) in each case.
With `O=C(Nc1cccc2ccccc12)Nn1cnnc1`, the GI50 with OVCAR-5 is > 100 µM (inactive); in the experiment on OVCAR-4 it was > 100 µM (inactive); in the experiment on MDA-MB-435, > 100 µM (inactive); in the experiment on BT-549 it was > 100 µM (inactive); with SNB-75 it was 27.6 µM (inactive); with HCT-15, > 100 µM. Moreover, the GI50 with SK-OV-3, in the experiment on SNB-19, in the experiment on DU-145, in the experiment with TK-10, in the experiment with SW-620 and in the experiment on SF-295 was > 100 µM (inactive) each time. Moreover, the GI50 with Hs-578T, in the experiment on T47D, in the experiment with Malme-3M, in the experiment on SR and with UACC-257 was > 100 µM (inactive) each time.
For `CCOc1c(/N=N/c2ccccc2Cl)c(-c2ccccc2)nn1C(=S)S`, the GI50 is 61 µM (inactive) with OVCAR-5; 48.4 µM (inactive) in the experiment with OVCAR-4; 29 µM (inactive) in the experiment on MDA-MB-435; 35.9 µM (inactive) in the experiment on BT-549; > 100 µM (inactive) in the experiment on SNB-75; 23.1 µM in the experiment with HCT-15. Moreover, the GI50 with SK-OV-3 was > 100 µM (inactive); in the experiment with SNB-19, > 100 µM (inactive); with DU-145, > 100 µM (inactive); with TK-10, 77.6 µM (inactive); with SW-620, 46.6 µM (inactive); with SF-295 it was 33.6 µM (inactive). The GI50 in the experiment with 786-0 was 37.4 µM (inactive); with Hs-578T, 22.2 µM (inactive); in the experiment with T47D, 22.2 µM (inactive); with RXF 393, 39.9 µM (inactive); with Malme-3M, 37.2 µM (inactive); in the experiment on SR, 26.5 µM (inactive). For the same compound, the GI50 in the experiment with UACC-257 is 50.6 µM (inactive).
For `CN(C)c1ccc(/C=C/C(=O)N[C@@H]2C(=O)N3[C@@H]2SC(C)(C)[C@@H]3C(=O)O)cc1`, the GI50 with OVCAR-5 was > 100 µM (inactive); in the experiment on OVCAR-4, > 100 µM (inactive); in the experiment on MDA-MB-435 it was > 100 µM (inactive); in the experiment with BT-549, > 100 µM (inactive); in the experiment with SNB-75 it was > 100 µM (inactive); in the experiment with HCT-15 it was > 100 µM. The GI50 in the experiment with SNB-19, with DU-145, in the experiment with TK-10, in the experiment with SW-620, with SF-295 and in the experiment with 786-0 was > 100 µM (inactive) each time. Moreover, the GI50 with Hs-578T, in the experiment on T47D, in the experiment on RXF 393, in the experiment with SR and with UACC-257 was > 100 µM (inactive) in each case.
For the compound `CCOC1CC(=O)c2c(Br)sc(Br)c21` (stereo not given), the GI50 in the experiment with OVCAR-5 is 23.7 µM (inactive); with MDA-MB-435, 17.5 µM (inactive); in the experiment with BT-549 it was 24.4 µM (inactive); with SNB-75 it was 19.1 µM (inactive); in the experiment with HCT-15 it was 18 µM; in the experiment with SK-OV-3 it was 16.5 µM (inactive). The GI50 in the experiment with SNB-19 was 23.8 µM (inactive); in the experiment with DU-145 it was 18 µM (inactive); in the experiment on TK-10, 20.7 µM (inactive); with SW-620, 20 µM (inactive); in the experiment on SF-295, 27.9 µM (inactive); in the experiment on 786-0, 30.7 µM (inactive). Further, the GI50 is 37.8 µM (inactive) with Hs-578T; 19.9 µM (inactive) in the experiment with T47D; 18.5 µM (inactive) with RXF 393; 23.1 µM (inactive) with Malme-3M; 21.7 µM (inactive) with SR; 16.9 µM (inactive) in the experiment on UACC-257.
With `C=C1c2nc3ccccc3n2C=C(c2ccccc2)N1c1ccc([N+](=O)[O-])cc1`, the GI50 with OVCAR-5 was 10.7 µM (inactive); in the experiment on OVCAR-4, 0.324 µM (active); with MDA-MB-435 it was 5.61 µM (inactive); in the experiment on BT-549, 9.16 µM (inactive); with SNB-75, 3.15 µM (inactive); with HCT-15 it was 5.75 µM. The GI50 in the experiment with SK-OV-3 is 1.79 µM (inactive); in the experiment with SNB-19, 5.65 µM (inactive); with DU-145 it was 6.92 µM (inactive); in the experiment on TK-10 it was 4.32 µM (inactive); in the experiment with SW-620, 14.4 µM (inactive); in the experiment on SF-295 it was 3.37 µM (inactive). In addition, the GI50 in the experiment on 786-0 is 0.855 µM (active); in the experiment with Hs-578T, 3.04 µM (inactive); with T47D it was 6.25 µM (inactive); in the experiment with RXF 393, 3.01 µM (inactive); with Malme-3M it was 3.01 µM (inactive); with SR, 4.95 µM (inactive). Besides, the GI50 with UACC-257 is 15.3 µM (inactive).
Turning to `C=CS(=O)(=O)CCN1CC1`, the GI50 in the experiment on OVCAR-5 is > 10 µM (inactive); with OVCAR-4, > 10 µM (inactive); in the experiment with MDA-MB-435, > 10 µM (inactive); in the experiment with BT-549, > 10 µM (inactive); in the experiment on SNB-75, > 10 µM (inactive); in the experiment with HCT-15, > 10 µM. For the same compound, the GI50 with SK-OV-3, with DU-145, in the experiment with TK-10, in the experiment with SW-620, in the experiment on SF-295 and in the experiment with 786-0 was > 10 µM (inactive) throughout. For the same compound, the GI50 with Hs-578T, in the experiment on T47D, in the experiment with Malme-3M, in the experiment on SR and with UACC-257 was > 10 µM (inactive) each time.
As to `COc1cccc(/C=C/C(=O)N2CC(CCl)c3c2cc(N)c2ccccc32)c1` (stereo not given), the GI50 with OVCAR-5 was 0.00804 µM (active); in the experiment with OVCAR-4, 0.00344 µM (active); in the experiment with MDA-MB-435 it was 0.00319 µM (active); in the experiment with BT-549, 0.0122 µM (active); in the experiment on SNB-75 it was 0.00237 µM (active); in the experiment with HCT-15, 0.034 µM. Also, the GI50 is 0.00371 µM (active) with SK-OV-3; 0.0059 µM (active) in the experiment on SNB-19; 0.00018 µM (active) with DU-145; 0.00314 µM (active) in the experiment on TK-10; 0.00194 µM (active) in the experiment on SW-620; 0.00114 µM (active) in the experiment on SF-295. For the same compound, the GI50 in the experiment on 786-0 is 0.00106 µM (active); in the experiment with Hs-578T it was 0.00968 µM (active); in the experiment with T47D, 0.0034 µM (active); with RXF 393, 0.00132 µM (active); in the experiment with Malme-3M, < 0.01 µM (active); in the experiment on UACC-257 it was 0.0193 µM (active).

The record behind these values is ChEMBL document CHEMBL1201862, “PubChem BioAssay data set” (2004).
